From ChEMBL document CHEMBL1134658 (J Med Chem, 2001)

Key:
Cytochrome P450 2C8 = target: T1, Cytochrome P450 2C8 (Homo sapiens, UniProt P10632); assay: Inhibitory effect on human recombinant liver Cytochrome P450 2C8 expressed in yeast strain
T1 sequence (P10632 whole entry): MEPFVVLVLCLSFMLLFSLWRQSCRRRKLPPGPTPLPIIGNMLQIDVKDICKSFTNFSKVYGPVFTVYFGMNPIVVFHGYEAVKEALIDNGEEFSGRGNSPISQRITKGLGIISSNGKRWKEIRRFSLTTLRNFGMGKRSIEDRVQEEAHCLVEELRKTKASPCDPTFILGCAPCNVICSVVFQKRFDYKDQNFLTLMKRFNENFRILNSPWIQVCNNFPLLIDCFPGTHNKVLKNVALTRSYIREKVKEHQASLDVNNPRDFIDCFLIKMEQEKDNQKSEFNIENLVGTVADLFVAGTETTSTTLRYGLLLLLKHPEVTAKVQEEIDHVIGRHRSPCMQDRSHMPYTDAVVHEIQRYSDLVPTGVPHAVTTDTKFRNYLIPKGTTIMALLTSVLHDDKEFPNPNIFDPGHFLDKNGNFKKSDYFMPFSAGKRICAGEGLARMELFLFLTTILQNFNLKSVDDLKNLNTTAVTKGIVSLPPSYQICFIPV

Cytochrome P450 2C19 = Cytochrome P450 2C19 (Homo sapiens, UniProt P33261); assay: Inhibitory effect on human recombinant liver cytochrome P450 2C19 expressed in yeast strain
Sequence of Cytochrome P450 2C19 (P33261 whole entry): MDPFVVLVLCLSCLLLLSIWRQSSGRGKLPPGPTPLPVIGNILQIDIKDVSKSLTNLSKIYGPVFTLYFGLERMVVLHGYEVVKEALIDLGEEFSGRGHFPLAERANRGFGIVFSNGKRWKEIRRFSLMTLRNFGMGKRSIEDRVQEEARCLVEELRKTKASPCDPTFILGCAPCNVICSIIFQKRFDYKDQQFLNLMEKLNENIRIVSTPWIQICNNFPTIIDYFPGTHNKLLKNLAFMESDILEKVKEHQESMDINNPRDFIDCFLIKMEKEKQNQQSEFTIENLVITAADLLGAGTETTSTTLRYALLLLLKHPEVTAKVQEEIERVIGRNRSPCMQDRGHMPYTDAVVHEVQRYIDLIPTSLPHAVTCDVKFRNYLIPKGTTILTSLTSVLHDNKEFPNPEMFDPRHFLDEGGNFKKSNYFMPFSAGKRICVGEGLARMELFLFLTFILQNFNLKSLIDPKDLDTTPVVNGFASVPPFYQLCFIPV

Cytochrome P450 2C9 = Cytochrome P450 2C9 (Homo sapiens, UniProt P11712); assay: Inhibitory effect on human recombinant liver cytochrome P450 2C9 expressed in yeast strain
Sequence of Cytochrome P450 2C9 (P11712 whole entry): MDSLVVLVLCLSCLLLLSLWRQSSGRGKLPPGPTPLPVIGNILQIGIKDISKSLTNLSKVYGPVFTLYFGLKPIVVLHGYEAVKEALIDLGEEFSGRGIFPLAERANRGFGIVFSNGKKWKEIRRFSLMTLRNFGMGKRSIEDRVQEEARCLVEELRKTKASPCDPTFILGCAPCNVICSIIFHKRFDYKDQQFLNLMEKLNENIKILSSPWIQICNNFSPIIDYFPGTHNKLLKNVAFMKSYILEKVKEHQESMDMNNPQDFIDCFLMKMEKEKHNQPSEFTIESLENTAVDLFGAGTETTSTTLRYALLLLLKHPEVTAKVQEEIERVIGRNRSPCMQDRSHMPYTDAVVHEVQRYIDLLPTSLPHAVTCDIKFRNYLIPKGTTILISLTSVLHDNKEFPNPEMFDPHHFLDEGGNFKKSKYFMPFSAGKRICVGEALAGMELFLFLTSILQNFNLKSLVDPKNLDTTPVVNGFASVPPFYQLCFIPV

Cytochrome P450 2C18 = target: T2, Cytochrome P450 2C18 (Homo sapiens, UniProt P33260); assay: Inhibitory effect on human recombinant liver cytochrome P450 2C18 expressed in yeast strain
T2 sequence (P33260 whole entry): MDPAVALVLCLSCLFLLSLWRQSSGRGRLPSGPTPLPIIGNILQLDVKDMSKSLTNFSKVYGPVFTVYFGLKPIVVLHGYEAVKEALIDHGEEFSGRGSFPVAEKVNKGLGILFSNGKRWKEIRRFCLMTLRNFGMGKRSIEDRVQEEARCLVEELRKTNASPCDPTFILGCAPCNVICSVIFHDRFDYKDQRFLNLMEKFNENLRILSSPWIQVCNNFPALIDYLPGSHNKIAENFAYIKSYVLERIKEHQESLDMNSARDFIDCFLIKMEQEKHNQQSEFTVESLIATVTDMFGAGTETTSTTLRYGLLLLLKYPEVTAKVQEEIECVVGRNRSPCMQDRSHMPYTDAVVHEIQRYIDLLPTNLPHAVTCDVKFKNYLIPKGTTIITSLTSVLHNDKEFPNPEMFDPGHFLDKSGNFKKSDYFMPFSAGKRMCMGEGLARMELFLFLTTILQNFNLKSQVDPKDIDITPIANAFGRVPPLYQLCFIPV

IC50 (Cytochrome P450 2C8) [µM]	IC50 (Cytochrome P450 2C19) [µM]	IC50 (Cytochrome P450 2C9) [µM]	IC50 (Cytochrome P450 2C18) [µM]	Compound
13	225	90	7	CCN(c1ccnn1-c1ccccc1)S(=O)(=O)c1ccc(N)cc1
20	20	> 200	10	C=CCc1ccc(S(=O)(=O)N(C)c2ccnn2-c2ccccc2)cc1
8			20	Nc1cccc(-c2ccc(S(=O)(=O)Nc3ccnn3-c3ccccc3)cc2)c1
50	200	100	15	CN(c1ccnn1-c1ccccc1)S(=O)(=O)c1ccc(N)cc1
15	45	55	7	Nc1ccc(S(=O)(=O)N(Cc2ccccc2)c2ccnn2-c2ccccc2)cc1
4	60	50	6	CCCCN(c1ccnn1-c1ccccc1)S(=O)(=O)c1ccc(N)cc1
8	250	55	8	CCCN(c1ccnn1-c1ccccc1)S(=O)(=O)c1ccc(N)cc1
15	10	20	20	CCCN(c1ccnn1-c1ccccc1)S(=O)(=O)c1ccc(C)cc1
> 250			8	O=[N+]([O-])c1cccc(-c2ccc(S(=O)(=O)N(CCCO)c3ccnn3-c3ccccc3)cc2)c1
> 250	165	20	9	O=[N+]([O-])c1cccc(-c2ccc(S(=O)(=O)N(CCO)c3ccnn3-c3ccccc3)cc2)c1
30	130	80	3	CC(C)N(c1ccnn1-c1ccccc1)S(=O)(=O)c1ccc(N)cc1
180	20	10	12	Cc1ccc(S(=O)(=O)N(C)c2ccnn2-c2ccccc2)cc1
> 250			4	O=[N+]([O-])c1cccc(-c2ccc(S(=O)(=O)N(CCCCO)c3ccnn3-c3ccccc3)cc2)c1
10	450	1	150	C=CCc1ccc(S(=O)(=O)Nc2ccnn2-c2ccccc2)cc1
22			30	Nc1ccc(S(=O)(=O)N(CCCO)c2ccnn2-c2ccccc2)cc1
130			60	Nc1ccc(S(=O)(=O)Nc2ccnn2-c2ccccc2)cc1 [SULFAPHENAZOLE]
> 250			65	NCCc1ccc(S(=O)(=O)N(CCCO)c2ccnn2-c2ccccc2)cc1
